In patent US20160102074A1, “SUBSTITUTED AMIDE COMPOUNDS” (PFIZER INC., priority 2014, published 2016):

How the values were obtained:
[1] = Human intestinal S9 fraction in vitro stability assay (HInt); type: in vitro ADME; conditions: human intestinal S9 0.1 mg/mL, 1 μM test compound, pH 7.4, 37° C., substrate depletion
Excerpt: In particular, the human intestinal S9 fraction in vitro stability assay (HInt) and human hepatocyte in vitro liver metabolism assay (HHep) provide important information regarding the clearance and metabolic activation of these compounds. The human intestinal S9 fraction in vitro stability assay provides a surrogate measure of compound metabolism as it travels across the gut wall; compounds with low CLint values more likely to enter the portal vein and be exposed to the liver. Likewise, the human hepatocyte in vitro liver metabolism assay provides a surrogate measure of compound metabolism when exposed to liver; compounds with high CLint values are more likely to be metabolically activated. For compounds such as prodrugs that release an active species on metabolic activation, high CLint values in human hepatocytes are desirable. Active compounds released in this way inhibit PCSK9 and show improved atherosclerotic properties by increased exposure of the active metabolite in the liver.
Human Intestinal S9 Fraction In Vitro Stability Assay (Hint)
In vitro stability of test compounds in human intestinal S9 fraction was determined by a substrate depletion approach. Frozen PMSF-free human intestinal S9 (BD Gentest) was thawed on wet ice and diluted to the test concentration of 0.1 mg/mL in 100 mM potassium phosphate buffer pH 7.4. Aliquots of diluted intestinal S9 (495 μL, n=2) were added to tubes in a dry heat bath and pre-warmed for 5 min at 37° C. Test compounds were dissolved in DMSO at 30 mM, ordered from the TekCel at 10 mM, and further diluted to 0.1 mM in DMSO. To initiate the reaction, 5 μL of 0.1 mM DMSO stock solution was added to the pre-warmed intestinal S9. The final test compound concentration in the incubation was 1 μM. At each time point (0.25, 5, 10, 20, 40, and 60 min) a 50 μL sample of incubate was removed and transferred to a plate containing 200 μL acetonitrile with internal standard (2 ng/mL terfenadine). After collection of the final time point, sample plates were capped, vortexed, and centrifuged for 5 minutes at approximately 2000×g. 150 μL of supernatant was removed and transferred to a clean storage plate for direct LC-MS/MS analysis. LC-MS/MS analysis was conducted on a Triple Quad 5500 (AB Sciex) with two LC-20AD pumps and CBM-20 controller (Shimadzu) and CTC PAL autosampler (LEAP Technologies). The MS was operated in multiple reaction monitoring mode with simultaneous monitoring for test compound and internal standard. 5 μL of sample was injected on a Kinetex C18 30×2.1 mm column (Phenomenex) and eluted at 0.5 ml/min under the following conditions, where solvent A was water containing 0.1% formic acid and solvent B was acetonitrile containing 0.1% formic acid: hold initial conditions 90% A and 10% B for 0.8 min, ramp to 30% A and 70% B over 1 min, step to 5% A and 95% B over 0.05 min, hold at 5% A and 95% B for 0.15 min, return to initial conditions over 0.1 min, and hold for 0.4 min. Peak areas of test compound and internal standard were quantitated using Analyst 1.5 (AB Sciex) and the ratios of test compound peak area to internal standard peak area (area ratio) were calculated. The natural log of area ratio was plotted versus time and the portion of the curve representing the initial linear rate of test compound depletion was fit using linear regression (IDBS E-Workbook 9.4). The slope of this line was converted to half-life (t1/2=−LN2/slope). Half-life was used to calculate intrinsic apparent clearance (CLint=LN2/(t1/2*(mg protein/ml incubation))).

human PCSK9 = test: In vivo plasma PCSK9 lowering in humanized PCSK9 mice; parameters: species or system mouse; conditions: hPCSK9 mice, single oral dose 500 mg/kg, relative to hour zero (baseline) levels
Excerpt: A humanized PCSK9 mouse model was developed to assess compound activity in vivo. This model was established by first generating a transgenic mouse containing the full-length human PCSK9 gene and its promoter through pronuclear injection of the bacterial artificial chromosome (BAC), RP11-627J9, into C57B16J mice. Mice containing the human PCSK9 transgene were then bred with PCSK9 knockout mice on a 129/C57BL6J background (Rashid S, Curtis D E, Garuti R, et al. Decreased plasma cholesterol and hypersensitivity to statins in mice lacking Pcsk9. Proc Natl Acad Sci USA 2005; 102(15):5374-9). […] For example, ethyl (S)-1-{5-[4-(4-{(3-chloropyridin-2-yl)[(3R)-piperidin-3-yl]carbamoyl}-2-fluorophenyl)-1-methyl-1H-pyrazol-5-yl]-1H-tetrazol-1-yl}ethyl carbonate (the parent molecule) was dosed orally and plasma and liver concentrations were measured for the metabolite, N-(3-chloropyridin-2-yl)-3-fluoro-4-[1-methyl-5-(2H-tetrazol-5-yl)-1H-pyrazol-4-yl]-N-[(3R)-piperidin-3-yl]benzamide. Quantitation of human plasma PCSK9 was performed using a commercially available sandwich ELISA kit (R&D Systems, DPC900) incorporating a horse radish peroxidase (HRP) conjugated secondary antibody (R&D Systems, DPC900) to generate a colorimetric signal proportional to PCSK9 concentration per the manufacturer's protocol. […]

microsomal CLint at 1 μM [1] [µL/min/mg]	Compound	Percent Plasma PCSK9 Lowering at 4 hours (human PCSK9) [%]
86.9	CCOC(=O)O[C@H](C)n1nnnc1-c1c(-c2ccc(C(=O)N(c3ncccc3C)[C@@H]3CCCNC3)cc2)cnn1C [Example 5b, ethyl (R)-1-{5-[1-methyl-4-(4-{(3-methylpyridin-2-yl)[(3R)-piperidin-3-yl]carbamoyl}phenyl)-1H-pyrazol-5-yl]-1H-tetrazol-1-yl}ethyl carbonate]	–
< 57.8	CCOC(=O)O[C@@H](C)n1nnnc1-c1c(-c2ccc(C(=O)N(c3ncccc3C)[C@@H]3CCCNC3)cc2)cnn1C [Example 5a, ethyl (S)-1-{5-[1-methyl-4-(4-{(3-methylpyridin-2-yl)[(3R)-piperidin-3-yl]carbamoyl}phenyl)-1H-pyrazol-5-yl]-1H-tetrazol-1-yl}ethyl carbonate]	–

Continued, molecule first:

Compound	microsomal CLint at 1 μM [1] [µL/min/mg]	Percent Plasma PCSK9 Lowering at 4 hours (human PCSK9) [%]
CCOC(=O)O[C@H](C)n1nnnc1-c1c(-c2ccc(C(=O)N(c3ncccc3Cl)[C@@H]3CCCNC3)cc2F)cnn1C [Example 11, ethyl (R)-1-{5-[4-(4-{(3-chloropyridin-2-yl)[(3R)-piperidin-3-yl]carbamoyl}-2-fluorophenyl)-1-methyl-1H-pyrazol-5-yl]-1H-tetrazol-1-yl}ethyl carbonate]	620	–
CCOC(=O)O[C@@H](C)n1nnnc1-c1c(-c2ccc(C(=O)N(c3ncccc3C)[C@@H]3CCCNC3)cc2F)cnn1C [Example 8, ethyl (S)-1-{5-[4-(4-{(3-methylpyridin-2-yl)[(3R)-piperidin-3-yl]carbamoyl}-2-fluorophenyl)-1-methyl-1H-pyrazol-5-yl]-1H-tetrazol-1-yl}ethyl carbonate]	116	–
CCOC(=O)O[C@@H](C)n1nnnc1-c1c(-c2ccc(C(=O)N(c3ncccc3Cl)[C@@H]3CCCNC3)nc2)cnn1C [Example 10, ethyl (S)-1-{5-[4-(6-{(3-chloropyridin-2-yl)[(3R)-piperidin-3-yl]carbamoyl}pyridin-3-yl)-1-methyl-1H-pyrazol-5-yl]-1H-tetrazol-1-yl}ethyl carbonate]	< 57.8	–
CCOC(=O)O[C@@H](C)n1nnnc1-c1c(-c2ccc(C(=O)N(c3ncccc3Cl)[C@@H]3CCCNC3)cc2)cnn1C [Example 6, ethyl (S)-1-{5-[1-methyl-4-(4-{(3-chloropyridin-2-yl)[(3R)-piperidin-3-yl]carbamoyl}phenyl)-1H-pyrazol-5-yl]-1H-tetrazol-1-yl}ethyl carbonate]	< 57.8	71
CCOC(=O)O[C@@H](C)n1nnnc1-c1c(-c2ccc(C(=O)N(c3ncccc3C)[C@@H]3CCCNC3)nc2)cnn1C [Example 9, ethyl (S)-1-{5-[1-methyl-4-(6-{(3-methylpyridin-2-yl)[(3R)-piperidin-3-yl]carbamoyl}pyridin-3-yl)-1H-pyrazol-5-yl]-1H-tetrazol-1-yl}ethyl carbonate]	< 57.8	–
CCOC(=O)O[C@@H](C)n1nnnc1-c1c(-c2ccc(C(=O)N(c3ncccc3Cl)[C@@H]3CCCNC3)cc2F)cnn1C [Example 7, ethyl (S)-1-{5-[4-(4-{(3-chloropyridin-2-yl)[(3R)-piperidin-3-yl]carbamoyl}-2-fluorophenyl)-1-methyl-1H-pyrazol-5-yl]-1H-tetrazol-1-yl}ethyl carbonate]	< 82.9	72
